Source: patent publication US20260356819A1, “OXOISOINDOLINYL-SUBSTITUTED […] DERIVATIVE AND USE THEREOF” (GLUETACS THERAPEUTICS (SHANGHAI) CO., LTD., priority 2023, published 2026)

Experiments:
Format in all cases: cell-based
Settings in all cases: compounds at 50 nM and 500 nM
IKZF1 = target: T1, IKZF1 (Homo sapiens, UniProt Q13422+Q96SW2); experiment: Western blot degradation of IKZF1 in hPBMCs (24 h)
T1 construct: The supernatant was aspirated as the extracted total cell protein; endogenous in cells; host or cells: human peripheral blood mononuclear cells (hPBMCs)
T1 sequence (Q13422 whole entry): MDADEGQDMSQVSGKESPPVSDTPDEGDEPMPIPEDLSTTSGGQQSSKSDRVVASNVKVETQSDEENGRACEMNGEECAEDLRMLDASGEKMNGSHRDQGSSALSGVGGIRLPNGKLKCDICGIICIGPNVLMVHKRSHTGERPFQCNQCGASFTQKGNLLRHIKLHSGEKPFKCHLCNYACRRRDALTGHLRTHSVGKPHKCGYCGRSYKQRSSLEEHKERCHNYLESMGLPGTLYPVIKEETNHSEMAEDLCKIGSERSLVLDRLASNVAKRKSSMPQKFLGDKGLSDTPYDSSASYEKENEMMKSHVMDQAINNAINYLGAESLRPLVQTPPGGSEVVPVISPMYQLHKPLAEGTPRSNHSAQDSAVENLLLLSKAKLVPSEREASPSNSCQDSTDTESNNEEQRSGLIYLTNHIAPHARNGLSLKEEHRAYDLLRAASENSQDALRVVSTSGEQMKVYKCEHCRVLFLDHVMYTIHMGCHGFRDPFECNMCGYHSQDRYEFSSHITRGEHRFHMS
T1 sequence (Q96SW2 whole entry): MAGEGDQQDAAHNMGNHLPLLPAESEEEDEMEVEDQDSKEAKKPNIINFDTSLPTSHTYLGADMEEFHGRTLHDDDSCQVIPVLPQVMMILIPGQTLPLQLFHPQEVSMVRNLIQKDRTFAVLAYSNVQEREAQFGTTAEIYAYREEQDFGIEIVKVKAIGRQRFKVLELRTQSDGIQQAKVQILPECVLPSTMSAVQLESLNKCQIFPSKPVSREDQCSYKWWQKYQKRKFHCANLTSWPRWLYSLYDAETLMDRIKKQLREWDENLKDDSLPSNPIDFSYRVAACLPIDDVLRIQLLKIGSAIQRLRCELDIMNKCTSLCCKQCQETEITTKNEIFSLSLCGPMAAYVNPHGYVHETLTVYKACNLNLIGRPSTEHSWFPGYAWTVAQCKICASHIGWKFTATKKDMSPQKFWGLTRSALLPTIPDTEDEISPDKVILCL
T1 sequence (Q16531 whole entry partner): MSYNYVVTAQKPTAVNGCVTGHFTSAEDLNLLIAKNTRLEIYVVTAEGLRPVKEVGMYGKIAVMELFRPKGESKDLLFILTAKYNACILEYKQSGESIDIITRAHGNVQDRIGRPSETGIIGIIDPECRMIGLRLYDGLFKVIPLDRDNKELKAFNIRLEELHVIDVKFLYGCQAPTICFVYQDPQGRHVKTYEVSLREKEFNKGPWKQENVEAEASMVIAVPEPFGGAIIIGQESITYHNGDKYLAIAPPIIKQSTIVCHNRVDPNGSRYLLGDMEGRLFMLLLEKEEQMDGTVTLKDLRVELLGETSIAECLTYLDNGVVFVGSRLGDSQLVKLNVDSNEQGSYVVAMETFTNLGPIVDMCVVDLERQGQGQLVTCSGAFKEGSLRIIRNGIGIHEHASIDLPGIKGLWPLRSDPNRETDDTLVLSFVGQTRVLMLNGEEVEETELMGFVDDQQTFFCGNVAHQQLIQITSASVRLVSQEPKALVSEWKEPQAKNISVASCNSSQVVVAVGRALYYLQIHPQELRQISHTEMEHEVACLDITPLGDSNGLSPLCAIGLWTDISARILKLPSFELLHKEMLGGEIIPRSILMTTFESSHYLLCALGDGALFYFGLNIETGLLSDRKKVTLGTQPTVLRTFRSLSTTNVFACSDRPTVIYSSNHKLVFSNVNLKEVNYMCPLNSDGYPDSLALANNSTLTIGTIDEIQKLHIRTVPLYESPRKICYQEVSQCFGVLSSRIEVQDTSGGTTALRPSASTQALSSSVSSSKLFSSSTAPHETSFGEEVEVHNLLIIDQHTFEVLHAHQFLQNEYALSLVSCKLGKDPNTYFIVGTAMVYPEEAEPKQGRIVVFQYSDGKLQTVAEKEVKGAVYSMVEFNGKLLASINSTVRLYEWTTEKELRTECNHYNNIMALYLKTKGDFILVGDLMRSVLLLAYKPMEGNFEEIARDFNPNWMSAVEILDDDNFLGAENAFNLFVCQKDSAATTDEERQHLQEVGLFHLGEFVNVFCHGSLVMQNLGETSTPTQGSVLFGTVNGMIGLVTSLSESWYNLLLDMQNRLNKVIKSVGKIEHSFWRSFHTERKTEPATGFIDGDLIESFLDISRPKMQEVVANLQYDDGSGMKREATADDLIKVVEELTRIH
In short: (§1)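 In this assay, each compound was incubated with human PBMCs for 24 h at 50 nM and 500 nM. Target levels were measured by Western blot densitometry normalised to an internal control.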

GSPT1 = target: T2, GSPT1 (Homo sapiens, UniProt P15170+Q96SW2); experiment: Western blot degradation of GSPT1 in hPBMCs (24 h)
T2 construct: The supernatant was aspirated as the extracted total cell protein; endogenous in cells; host or cells: human peripheral blood mononuclear cells (hPBMCs)
In short: as §1

CK1α = target: T3, CK1α (Homo sapiens, UniProt P48729+Q96SW2); experiment: Western blot degradation of CK1α in hPBMCs (24 h)
T3 construct: The supernatant was aspirated as the extracted total cell protein; endogenous in cells; host or cells: human peripheral blood mononuclear cells (hPBMCs)
T3 sequence (P48729 whole entry): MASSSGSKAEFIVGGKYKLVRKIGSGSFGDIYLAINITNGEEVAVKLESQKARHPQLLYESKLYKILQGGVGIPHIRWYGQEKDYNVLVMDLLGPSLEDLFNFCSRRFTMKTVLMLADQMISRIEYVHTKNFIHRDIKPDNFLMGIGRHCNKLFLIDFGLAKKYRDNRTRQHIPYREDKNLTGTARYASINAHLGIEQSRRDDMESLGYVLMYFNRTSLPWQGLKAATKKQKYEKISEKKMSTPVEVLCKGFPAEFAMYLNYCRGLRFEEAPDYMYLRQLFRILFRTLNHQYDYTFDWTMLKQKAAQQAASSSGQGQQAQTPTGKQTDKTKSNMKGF
T3 sequence (Q96SW2 whole entry): as the sequence (Q96SW2 whole entry) above
T3 sequence (Q16531 whole entry partner): as the sequence (Q16531 whole entry partner) above
In short: as §1

IKZF2 = target: T4, IKZF2 (Homo sapiens, UniProt Q96SW2+Q9UKS7); experiment: Western blot degradation of IKZF2 in hPBMCs (24 h)
T4 construct: The supernatant was aspirated as the extracted total cell protein; endogenous in cells; host or cells: human peripheral blood mononuclear cells (hPBMCs)
T4 sequence (Q9UKS7 whole entry): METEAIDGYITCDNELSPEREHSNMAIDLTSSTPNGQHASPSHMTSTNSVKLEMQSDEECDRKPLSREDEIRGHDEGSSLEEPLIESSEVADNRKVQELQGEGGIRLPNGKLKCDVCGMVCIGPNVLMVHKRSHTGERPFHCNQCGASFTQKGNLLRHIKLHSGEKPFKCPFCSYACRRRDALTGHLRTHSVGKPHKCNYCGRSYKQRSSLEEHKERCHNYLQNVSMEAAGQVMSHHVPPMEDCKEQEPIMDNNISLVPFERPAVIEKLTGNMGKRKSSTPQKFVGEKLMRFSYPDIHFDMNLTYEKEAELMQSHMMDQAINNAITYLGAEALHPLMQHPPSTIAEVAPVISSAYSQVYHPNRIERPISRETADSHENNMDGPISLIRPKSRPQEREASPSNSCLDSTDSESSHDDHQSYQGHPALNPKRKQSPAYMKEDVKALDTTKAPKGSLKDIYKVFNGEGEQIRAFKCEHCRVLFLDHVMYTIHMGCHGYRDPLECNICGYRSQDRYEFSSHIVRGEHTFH
T4 sequence (Q96SW2 whole entry): as the sequence (Q96SW2 whole entry) above
T4 sequence (Q16531 whole entry partner): as the sequence (Q16531 whole entry partner) above
In short: as §1

WEE1 = target: T5, WEE1 (Homo sapiens, UniProt P30291+Q96SW2); experiment: Western blot degradation of WEE1 in hPBMCs (24 h)
T5 construct: The supernatant was aspirated as the extracted total cell protein; endogenous in cells; host or cells: human peripheral blood mononuclear cells (hPBMCs)
T5 sequence (P30291 whole entry): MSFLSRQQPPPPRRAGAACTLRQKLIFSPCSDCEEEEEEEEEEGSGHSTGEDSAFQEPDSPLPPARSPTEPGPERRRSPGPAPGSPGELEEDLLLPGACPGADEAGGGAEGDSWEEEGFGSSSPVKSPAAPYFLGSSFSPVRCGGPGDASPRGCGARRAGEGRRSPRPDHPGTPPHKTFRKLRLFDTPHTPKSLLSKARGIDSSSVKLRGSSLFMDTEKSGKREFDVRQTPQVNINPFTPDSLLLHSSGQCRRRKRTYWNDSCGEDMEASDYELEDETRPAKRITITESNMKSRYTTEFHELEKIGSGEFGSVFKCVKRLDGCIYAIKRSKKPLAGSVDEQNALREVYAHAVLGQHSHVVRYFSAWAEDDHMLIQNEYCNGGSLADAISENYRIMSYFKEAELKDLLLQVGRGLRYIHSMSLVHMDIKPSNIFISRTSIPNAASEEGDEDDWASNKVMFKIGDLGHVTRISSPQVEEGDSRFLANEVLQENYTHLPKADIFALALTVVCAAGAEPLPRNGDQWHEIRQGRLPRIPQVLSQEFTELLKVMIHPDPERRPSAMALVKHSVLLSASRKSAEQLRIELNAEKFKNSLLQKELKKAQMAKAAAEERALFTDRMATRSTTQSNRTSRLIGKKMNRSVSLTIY
T5 sequence (Q96SW2 whole entry): as the sequence (Q96SW2 whole entry) above
T5 sequence (Q16531 whole entry partner): as the sequence (Q16531 whole entry partner) above
In short: as §1

IKZF3 = target: T6, IKZF3 (Homo sapiens, UniProt Q96SW2+Q9UKT9); experiment: Western blot degradation of IKZF3 in hPBMCs (24 h)
T6 construct: The supernatant was aspirated as the extracted total cell protein; endogenous in cells; host or cells: human peripheral blood mononuclear cells (hPBMCs)
T6 sequence (Q9UKT9 whole entry): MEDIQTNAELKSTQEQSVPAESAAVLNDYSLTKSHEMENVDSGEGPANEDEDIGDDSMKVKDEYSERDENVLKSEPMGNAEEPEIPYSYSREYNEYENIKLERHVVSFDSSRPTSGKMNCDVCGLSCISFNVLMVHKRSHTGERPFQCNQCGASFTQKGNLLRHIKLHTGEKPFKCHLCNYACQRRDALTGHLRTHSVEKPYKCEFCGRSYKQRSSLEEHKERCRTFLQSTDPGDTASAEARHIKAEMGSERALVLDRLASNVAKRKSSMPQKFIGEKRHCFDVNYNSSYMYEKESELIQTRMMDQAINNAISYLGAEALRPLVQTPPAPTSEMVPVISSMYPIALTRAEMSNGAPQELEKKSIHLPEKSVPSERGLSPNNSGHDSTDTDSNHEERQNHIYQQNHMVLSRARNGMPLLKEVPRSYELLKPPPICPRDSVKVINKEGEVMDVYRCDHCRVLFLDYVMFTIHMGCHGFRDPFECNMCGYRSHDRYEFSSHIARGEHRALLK
T6 sequence (Q96SW2 whole entry): as the sequence (Q96SW2 whole entry) above
T6 sequence (Q16531 whole entry partner): as the sequence (Q16531 whole entry partner) above
In short: as §1

SMILES	IKZF1 substrate protein remaining % (IKZF1)	GSPT1 substrate protein remaining % (GSPT1)	CK1α substrate protein remaining % (CK1α)	IKZF2 substrate protein remaining % (IKZF2)	WEE1 substrate protein remaining % (WEE1)	IKZF3 substrate protein remaining % (IKZF3)
Cc1nc(C2=CCN(Cc3ccc4c(c3)C(=O)N(N3CCC(=O)NC3=O)C4=O)CC2)c2c3c(sc2n1)CCCC3 [GT-08432, 2-(2,4-dioxotetrahydropyrimidin-1(2H)-yl)-5-((4-(2-methyl-5,6,7,8-tetrahydrobenzo[4,5]thieno[2,3-d]pyrimidin-4-yl)-3,6-dihydropyridin-1(2H)-yl)methyl)isoindoline-1,3-dione]	B (80%< substrate protein remaining % ≤100%)	A (0% ≤ substrate protein remaining % ≤80%)	A (0% ≤ substrate protein remaining % ≤80%)	B (80%< substrate protein remaining % ≤100%)	B (80%< substrate protein remaining % ≤100%)	A (0% ≤ substrate protein remaining % ≤80%)
O=C1CCN(N2C(=O)c3ccc(CN4CC=C(c5ncnc6sc7c(c56)CCCC7)CC4)cc3C2=O)C(=O)N1 [GT-08433, 2-(2,4-dioxotetrahydropyrimidin-1(2H)-yl)-5-((4-(5,6,7,8-tetrahydrobenzo[4,5]thieno[2,3-d]pyrimidin-4-yl)-3,6-dihydropyridin-1(2H)-yl)methyl)isoindoline-1,3-dione]	B (80%< substrate protein remaining % ≤100%)	A (0% ≤ substrate protein remaining % ≤80%)	A (0% ≤ substrate protein remaining % ≤80%)	B (80%< substrate protein remaining % ≤100%)	B (80%< substrate protein remaining % ≤100%)	A (0% ≤ substrate protein remaining % ≤80%)
O=C1CCN(N2C(=O)c3ccc(CN4CC=C(c5ncnc6sc7c(c56)CCC7)CC4)cc3C2=O)C(=O)N1 [GT-08434, 5-((4-(6,7-dihydro-5H-cyclopenta[4,5]thieno[2,3-d]pyrimidin-4-yl)-3,6-dihydropyridin-1(2H)-yl)methyl)-2-(2,4-dioxotetrahydropyrimidin-1(2H)-yl)isoindoline-1,3-dione]	A (0% ≤ substrate protein remaining % ≤80%)	A (0% ≤ substrate protein remaining % ≤80%)	A (0% ≤ substrate protein remaining % ≤80%)	A (0% ≤ substrate protein remaining % ≤80%)	B (80%< substrate protein remaining % ≤100%)	A (0% ≤ substrate protein remaining % ≤80%)
Cc1nc(C2=CCN(Cc3ccc4c(c3)C(=O)N(N3CCC(=O)NC3=O)C4=O)CC2)c2c3c(sc2n1)CCC3 [GT-08435, 2-(2,4-dioxotetrahydropyrimidin-1(2H)-yl)-5-((4-(2-methyl-6,7-dihydro-5H-cyclopenta[4,5]thieno[2,3-d]pyrimidin-4-yl)-3,6-dihydropyridin-1(2H)-yl)methyl)isoindoline-1,3-dione]	A (0% ≤ substrate protein remaining % ≤80%)	A (0% ≤ substrate protein remaining % ≤80%)	B (80%< substrate protein remaining % ≤100%)	B (80%< substrate protein remaining % ≤100%)	A (0% ≤ substrate protein remaining % ≤80%)	A (0% ≤ substrate protein remaining % ≤80%)
Cc1nc(C2=CCN(Cc3ccc4c(c3)CN(N3CCC(=O)NC3=O)C4=O)CC2)c2c3c(sc2n1)CCC3 [GT-08437, 1-(5-((4-(2-methyl-6,7-dihydro-5H-cyclopenta[4,5]thieno[2,3-d]pyrimidin-4-yl)-3,6-dihydropyridin-1(2H)-yl)methyl)-1-oxoisoindolin-2-yl)dihydropyrimidine-2,4(1H,3H)-dione]	A (0% ≤ substrate protein remaining % ≤80%)	A (0% ≤ substrate protein remaining % ≤80%)	B (80%< substrate protein remaining % ≤100%)	B (80%< substrate protein remaining % ≤100%)	A (0% ≤ substrate protein remaining % ≤80%)	A (0% ≤ substrate protein remaining % ≤80%)
O=C1CCN(N2Cc3cc(CN4CC=C(c5ncc6ccsc6n5)CC4)ccc3C2=O)C(=O)N1 [GT-08438, 1-(1-oxo-5-((4-(thieno[2,3-d]pyrimidin-2-yl)-3,6-dihydropyridin-1(2H)-yl)methyl)isoindolin-2-yl)dihydropyrimidine-2,4(1H,3H)-dione]	A (0% ≤ substrate protein remaining % ≤80%)	A (0% ≤ substrate protein remaining % ≤80%)	B (80%< substrate protein remaining % ≤100%)	B (80%< substrate protein remaining % ≤100%)	A (0% ≤ substrate protein remaining % ≤80%)	A (0% ≤ substrate protein remaining % ≤80%)
O=C1CCN(N2Cc3cc(CN4CCN(c5nc(Cl)nc6c5SCC6)CC4)ccc3C2=O)C(=O)N1 [GT-08439, 1-(5-((4-(2-chloro-6,7-dihydrothieno[3,2-d]pyrimidin-4-yl)piperazin-1-yl)methyl)-1-oxoisoindolin-2-yl)dihydropyrimidine-2,4(1H,3H)-dione]	A (0% ≤ substrate protein remaining % ≤80%)	A (0% ≤ substrate protein remaining % ≤80%)	B (80%< substrate protein remaining % ≤100%)	B (80%< substrate protein remaining % ≤100%)	A (0% ≤ substrate protein remaining % ≤80%)	A (0% ≤ substrate protein remaining % ≤80%)
O=C1CCN(N2Cc3cc(CN4CCN(c5ncnc6ccsc56)CC4)ccc3C2=O)C(=O)N1 [GT-08443, 1-(1-oxo-5-((4-(thieno[3,2-d]pyrimidin-4-yl)piperazin-1-yl)methyl)isoindolin-2-yl)dihydropyrimidine-2,4(1H,3H)-dione]	B (80%< substrate protein remaining % ≤100%)	B (80%< substrate protein remaining % ≤100%)	B (80%< substrate protein remaining % ≤100%)	B (80%< substrate protein remaining % ≤100%)	A (0% ≤ substrate protein remaining % ≤80%)	B (80%< substrate protein remaining % ≤100%)
O=C1CCN(N2Cc3cc(CN4CCN(c5nc(Cl)nc6ccsc56)CC4)ccc3C2=O)C(=O)N1 [GT-08444, 1-(5-((4-(2-chlorothieno[3,2-d]pyrimidin-4-yl)piperazin-1-yl)methyl)-1-oxoisoindolin-2-yl)dihydropyrimidine-2,4(1H,3H)-dione]	B (80%< substrate protein remaining % ≤100%)	B (80%< substrate protein remaining % ≤100%)	B (80%< substrate protein remaining % ≤100%)	B (80%< substrate protein remaining % ≤100%)	A (0% ≤ substrate protein remaining % ≤80%)	B (80%< substrate protein remaining % ≤100%)
O=C1CCN(N2Cc3cc(CN4CCN(c5nc(N6CCOCC6)nc6ccsc56)CC4)ccc3C2=O)C(=O)N1 [GT-08446, 1-(5-((4-(2-morpholinothieno[3,2-d]pyrimidin-4-yl)piperazin-1-yl)methyl)-1-oxoisoindolin-2-yl)dihydropyrimidine-2,4(1H,3H)-dione]	B (80%< substrate protein remaining % ≤100%)	A (0% ≤ substrate protein remaining % ≤80%)	B (80%< substrate protein remaining % ≤100%)	B (80%< substrate protein remaining % ≤100%)	B (80%< substrate protein remaining % ≤100%)	A (0% ≤ substrate protein remaining % ≤80%)
O=C1CCN(N2C(=O)c3ccc(CN4CCN(c5nc(Cl)nc6c5SCC6)CC4)cc3C2=O)C(=O)N1 [GT-08448, 5-((4-(2-chloro-6,7-dihydrothieno[3,2-d]pyrimidin-4-yl)piperazin-1-yl)methyl)-2-(2,4-dioxotetrahydropyrimidin-1(2H)-yl)isoindoline-1,3-dione]	B (80%< substrate protein remaining % ≤100%)	A (0% ≤ substrate protein remaining % ≤80%)	B (80%< substrate protein remaining % ≤100%)	B (80%< substrate protein remaining % ≤100%)	B (80%< substrate protein remaining % ≤100%)	B (80%< substrate protein remaining % ≤100%)
O=C1CCN(N2C(=O)c3ccc(CN4CCN(c5nc(N6CCOCC6)nc6c5SCC6)CC4)cc3C2=O)C(=O)N1 [GT-08450, 2-(2,4-dioxotetrahydropyrimidin-1(2H)-yl)-5-((4-(2-morpholino-6,7-dihydrothieno[3,2-d]pyrimidin-4-yl)piperazin-1-yl)methyl)isoindoline-1,3-dione]	B (80%< substrate protein remaining % ≤100%)	A (0% ≤ substrate protein remaining % ≤80%)	B (80%< substrate protein remaining % ≤100%)	B (80%< substrate protein remaining % ≤100%)	B (80%< substrate protein remaining % ≤100%)	B (80%< substrate protein remaining % ≤100%)
